These results are taken from ChEMBL document CHEMBL1150465, “DNA topoisomerase II inhibition by substituted 1,2,3,4-tetrahydro--carboline derivatives” (Bioorg Med Chem Lett, 1994).

Assay [1] has as its system Nucleic Acid. Briefly: DNA intercalating activity was determined; Each (+) indicates 1 to 2 -fold increase. The assay is classed as functional.
Assay [2] concerns the target T1, DNA topoisomerase II (Homo sapiens) (UniProt P11388+Q02880). The assay can be described thus: Compound was tested for DNA Topoisomerase II mediated cleavage of DNA; Each + indicates 2 to 4 fold increase. Type of assay: protein assay.
The target of assay [3] is T1, DNA topoisomerase II (Homo sapiens). Briefly: Compound was tested for DNA Topoisomerase II mediated cleavage of DNA; Each (+) indicates 1 to 2 -fold increase. The assay is classed as protein assay.
The target is the same in assay [4]. Briefly: Compound was tested for DNA Topoisomerase II mediated cleavage of DNA; No increase. Type of assay: protein assay.
Assay [5] has as its system Nucleic Acid. The assay can be described thus: DNA intercalating activity was determined; Each + indicates a 2 to 4 fold increase. The assay is classed as functional.
The target in assay [6] is T1, DNA topoisomerase II (Homo sapiens). Briefly: Compound was tested for DNA Topoisomerase II mediated cleavage of DNA; inactive. Type of assay: protein assay.

Active and inactive are the calls of the source. The rule behind the calls is not given here.

With `COc1cc([C@@H]2c3cc4c(cc3[C@@H](O[C@@H]3O[C@@H]5CO[C@@H](C)O[C@H]5[C@H](O)[C@H]3O)[C@H]3COC(=O)[C@H]23)OCO4)cc(OC)c1O`, the Activity entry was “(+)” in assay [1] and “++” in assay [2].
On to `COC(=O)N1CCc2c([nH]c3ccccc23)C1c1ccc(NS(C)(=O)=O)c(OC)c1` (configuration not stated), for which the Activity entry in assay [3] was “+”.
For `COc1cc(C2C3Nc4ccccc4C3CC3CCC(=O)N32)cc(OC)c1O` (configuration not stated), the Activity entry in assay [2] is “++”.
With `COC(=O)N1CCc2cc3c(cc2C1c1cc(OC)c(O)c(OC)c1)OCO3` (configuration not stated), the Activity entry in assay [4] was “No increase”.
Regarding `COC(=O)N1CCc2c([nH]c3ccccc23)C1c1ccc(N)c(OC)c1` (configuration not stated), the Activity result in assay [3] was “+”.
Consider `COC(=O)N1CCc2c([nH]c3ccccc23)C1c1cc(OC)c(O)c(OC)c1` (stereo in doubt; 4), for which the Activity result in assay [5] was “denotes 2 to 4 fold increase”; in assay [2], “++(+)”.
Turning to `COC(=O)N1CCc2c([nH]c3ccccc23)C1c1ccc(O)cc1` (configuration not stated), in assay [6], the result was inactive.
Still for that read-out and setting: then `COC(=O)N1CCc2c([nH]c3ccccc23)C1c1cc(OC)c(OC)c(OC)c1` (configuration not stated), with “inactive”.
Regarding `COC(=O)N1CCc2c([nH]c3ccccc23)C1c1cc(OC)c(O)c(OC)c1` (stereo in doubt; 5), the Activity entry in assay [1] is “(+)”; in assay [2] it was “denotes 2 to 4 fold increase”.
